Values after ≈ are worked out from the molar mass of the structure shown.
How the values were obtained:
Assay type in all cases: functional
[1] = tested on: Culex pipiens pallens; assay: Insecticidal activity against Culex pipiens pallens (mosquito) assessed as mortality at 0.0005 ug/insect after 24 hr
[2] = tested on: Musca domestica; assay: Insecticidal activity against Musca domestica (house fly) assessed as mortality at 0.250 ug/insect after 24 hr
[3] = tested on: Musca domestica; assay: Insecticidal activity against Musca domestica (house fly) assessed as mortality at 0.125 ug/insect after 24 hr
[4] = tested on: Culex pipiens pallens; assay: Insecticidal activity against Culex pipiens pallens (mosquito) assessed as mortality at 0.004 ug/insect after 24 hr
[5] = tested on: Culex pipiens pallens; assay: Insecticidal activity against Culex pipiens pallens (mosquito) assessed as mortality at 0.008 ug/insect after 24 hr
[6] = tested on: Culex pipiens pallens; assay: Insecticidal activity against Culex pipiens pallens (mosquito) assessed as mortality at 0.002 ug/insect after 24 hr
[7] = tested on: Musca domestica; assay: Insecticidal activity against Musca domestica (house fly) assessed as mortality at 0.031 ug/insect after 24 hr
[8] = tested on: Culex pipiens pallens; assay: Insecticidal activity against Culex pipiens pallens (mosquito) assessed as mortality at 0.001 ug/insect after 24 hr
[9] = tested on: Musca domestica; assay: Insecticidal activity against Musca domestica (house fly) assessed as mortality at 0.062 ug/insect after 24 hr
[10] = tested on: Musca domestica; assay: Insecticidal activity against Musca domestica (house fly) assessed as mortality at 0.015 ug/insect after 24 hr
[11] = tested on: Culex pipiens pallens; assay: Insecticidal activity against Culex pipiens pallens (mosquito) assessed as mortality at 0.00025 ug/insect after 24 hr
[12] = tested on: Candida albicans; assay: Antifungal activity against Candida albicans ATCC 10231 after 7 days by agar dilution method; details: ATCC 10231, 168 h
[13] = tested on: Culex pipiens pallens; assay: Insecticidal activity against Culex pipiens pallens (mosquito) assessed as mortality at 5 ug/insect after 24 hr
[14] = tested on: Musca domestica; assay: Insecticidal activity against Musca domestica (house fly) assessed as mortality at 5 ug/insect after 24 hr
[15] = tested on: Trichophyton mentagrophytes; assay: Antifungal activity against Trichophyton mentagrophytes IFO 32412 after 7 days by agar dilution method; details: IFO 32412, 168 h
[16] = tested on: Fusarium oxysporum; assay: Antifungal activity against Fusarium oxysporum OPS 118 after 7 days by agar dilution method; details: OPS 118, 168 h
[17] = tested on: Penicillium expansum; assay: Antifungal activity against Penicillium expansum IFO 8800 after 7 days by agar dilution method; details: IFO 8800, 168 h
[18] = tested on: Aspergillus niger; assay: Antifungal activity against Aspergillus niger ATCC 16404 after 7 days by agar dilution method; details: ATCC 16404, 168 h
[19] = tested on: Wickerhamomyces anomalus; assay: Antifungal activity against Wickerhamomyces anomalus OPS 308 after 7 days by agar dilution method; details: Hansenula anomala, OPS 308, 168 h
[20] = tested on: Culex pipiens pallens; assay: Insecticidal activity against Culex pipiens pallens (mosquito) assessed as mortality at 0.05 ug/insect after 24 hr
[21] = tested on: Culex pipiens pallens; assay: Insecticidal activity against Culex pipiens pallens (mosquito) assessed as mortality at 0.10 ug/insect after 24 hr
[22] = tested on: Culex pipiens pallens; assay: Insecticidal activity against Culex pipiens pallens (mosquito) assessed as mortality at 0.025 ug/insect after 24 hr
[23] = tested on: Musca domestica; assay: Insecticidal activity against Musca domestica (house fly) assessed as mortality at 4 ug/insect after 24 hr
[24] = tested on: Culex pipiens pallens; assay: Insecticidal activity against Culex pipiens pallens (mosquito) assessed as mortality at 0.5 ug/insect after 24 hr
[25] = tested on: Musca domestica; assay: Insecticidal activity against Musca domestica (house fly) assessed as mortality at 0.5 ug/insect after 24 hr
[26] = tested on: Musca domestica; assay: Insecticidal activity against Musca domestica (house fly) assessed as mortality at 2 ug/insect after 24 hr
[27] = tested on: Musca domestica; assay: Insecticidal activity against Musca domestica (house fly) assessed as mortality at 0.25 ug/insect after 24 hr
[28] = tested on: Musca domestica; assay: Insecticidal activity against Musca domestica (house fly) assessed as mortality at 1 ug/insect after 24 hr
[29] = tested on: Culex pipiens pallens; assay: Insecticidal activity against Culex pipiens pallens (mosquito) assessed as mortality at 4 ug/insect after 24 hr
[30] = tested on: Musca domestica; assay: Insecticidal activity against Musca domestica (house fly) assessed as mortality at 0.10 ug/insect after 24 hr
[31] = tested on: Culex pipiens pallens; assay: Insecticidal activity against Culex pipiens pallens (mosquito) assessed as mortality at 0.25 ug/insect after 24 hr
[32] = tested on: Culex pipiens pallens; assay: Insecticidal activity against Culex pipiens pallens (mosquito) assessed as mortality at 2 ug/insect after 24 hr
[33] = tested on: Musca domestica; assay: Insecticidal activity against Musca domestica (house fly) assessed as mortality at 0.05 ug/insect after 24 hr
[34] = tested on: Culex pipiens pallens; assay: Insecticidal activity against Culex pipiens pallens (mosquito) assessed as mortality at 1 ug/insect after 24 hr

Compound | MIC [12] | Activity [13] | Activity [14] | MIC [15] | MIC [16] | MIC [17] | MIC [18] | MIC [19] | other results
COP(=S)(OC)Oc1ccc([N+](=O)[O-])c(C)c1 [FENITROTHION] |  |  |  |  |  |  |  |  | Activity [1]: 3.3%; Activity [2]: 100%; Activity [3]: 93.3%; Activity [4]: 86.7%; Activity [5]: 100%; Activity [6]: 50%; Activity [7]: 3.3%; Activity [8]: 16.7%; Activity [9]: 46.7%; Activity [10]: 0%; Activity [11]: 0%
CC(=O)NN1C(=O)CSC1=S [N-ACETYLAMINORHODANINE] | > 1000 µg/mL | 0% | 0% | > 1000 µg/mL | > 1000 µg/mL | > 1000 µg/mL | > 1000 µg/mL | > 1000 µg/mL | 
O=C(NN1C(=O)CSC1=S)c1ccccc1 [N-BENZOYLAMINORHODANINE] | > 1000 µg/mL | 0% | 0% | > 1000 µg/mL | > 1000 µg/mL | > 1000 µg/mL | > 1000 µg/mL | > 1000 µg/mL | 
NN1C(=O)CSC1=S [AMINORHODANINE] | 12.5 µg/mL (≈ 0.0843 mM) | 100% | 100% | 12.5 µg/mL (≈ 0.0843 mM) | 400 µg/mL (≈ 2.7 mM) | 100 µg/mL (≈ 0.675 mM) | 6.25 µg/mL (≈ 0.0422 mM) | 25 µg/mL (≈ 0.169 mM) | Activity [20]: 16.7%; Activity [21]: 33.3%; Activity [22]: 3.3%; Activity [23]: 86.7%; Activity [24]: 60%; Activity [25]: 36.7%; Activity [26]: 63.3%; Activity [27]: 17.9%; Activity [28]: 60%; Activity [29]: 100%; Activity [30]: 10%; Activity [31]: 53.3%; Activity [32]: 100%; Activity [33]: 0%; Activity [34]: 86.7%
O=C1CSC(=S)N1 [RHODANINE] | 800 µg/mL (≈ 6.01 mM) | 0% | 0% | 200 µg/mL (≈ 1.5 mM) | 800 µg/mL (≈ 6.01 mM) | > 1000 µg/mL | 800 µg/mL (≈ 6.01 mM) | 400 µg/mL (≈ 3 mM) | 
